What was measured:
[1] = Intratumoral Compound A concentration by LC/MS/MS; format: in vivo, mouse; conditions: 3 hours after last dose; Compound A 30 mg/kg/day, alone or with Compound B 50 mg/kg/day
Protocol: FIG. 6F is a graph showing the intratumoral Compound A concentrations as assessed by mass spectrometry of tumor tissues harvested from animals 3 hours after last treatment with Compound A (30 mg/kg/day), Compound B (50 mg/kg/day), or their combination.
Metabolites from 100 mg of mouse tumor samples were extracted using 80% methanol according to Yuan et al. (Nat. Protoc., 7: 872-881, 2012) 10 μL were injected and analyzed using a 5500 QTRAP hybrid triple quadrupole mass spectrometer (AB/SCIEX) coupled to a Prominence UFLC HPLC system (Shimadzu) via selected reaction monitoring (SRM) for the Q1/Q3 transition of 410.8/367.0 for 5-(2,6-dimorpholinopyrimidin-4-yl)-4-(trifluoromethyl)pyridin-2-amine (Compound A). ESI voltage was +4900V in positive ion mode using a dwell time of 4 msec and collision energy of 45. Approximately 15 data points were obtained for Compound A per LC/MS/MS experiment. Samples were delivered to the MS via hydrophilic interaction chromatography (HILIC) using a 4.6 mm i.d×10 cm Amide Xbridge column (Waters) at 350 μL/min. Gradients were run starting from 85% buffer B (HPLC grade acetonitrile) to 42% B from 0-5 minutes; 42% B to 0% B from 5-16 minutes; 0% B was held from 16-24 minutes; 0% B to 85% B from 24-25 minutes; 85% B was held for 7 minutes to re-equilibrate the column. Compound A eluted at approximately 3.50 min. […]

[2] = tested on: breast cancer cells isolated from tumors of MMTV-CreBRCA1^f/fp53+/− mice; test: Rad51 foci immunofluorescence after ionizing radiation; format: cell-based, mouse; conditions: pre-treatment, 10 Gy, 6 hours post-irradiation
Protocol: FIGS. 5B-5E are immunofluorescence images of breast cancer cells isolated from primary tumors from MMTV-CreBRCA1^f/fp53+/− mice either treated with vehicle control (5B and 5C) or Compound A (5D and 5E) for 18 hours, followed by irradiation with 10 Gy IR 6 hours later cells, using antibodies against Rad51 and counterstained with DAPI. Rad51 foci are depicted as lighter punctuate signals within the cells (5C).
Cells were plated on coverslips in a 6-well plates and incubated overnight at 37° C. with 5% CO2 before drug treatment. Cells were exposed to 5-(2,6-dimorpholinopyrimidin-4-yl)-4-(trifluoromethyl)pyridin-2-amine (Compound A) for […] followed by irradiation (10 Gy). Cells were fixed with 3% paraformaldehyde and 2% sucrose diluted in PBS 6 h post-irradiation and subsequently permeabilized with 0.5% TritonX-100 buffer (20 mM HEPES pH7.4, 50 mM NaCl, 3 mM MgCl, 300 mM sucrose) for 3 minutes on ice. Cells were incubated with a primary rabbit anti human Rad-51 antiserum at 1:500 dilution in hybridization buffer (5% goat serum, 0.5% NaN3, 1×PBS) for 30 min at 37° C. and subsequently washed thrice in PBS before incubation with secondary antibody for 30 minutes at 37° C. Secondary antibody used was a donkey anti-rabbit Alexafluor 488 conjugated (Invitrogen) at a concentration of 1:50. […]

[3] = tested on: tumor tissue of MMTV-CreBRCA1^f/fp53+/− mice; test: Immunohistochemistry / immunoblot of tumor tissue for γH2AX, Ki67, p-ERK; set-up: species or system mouse; conditions: in vivo treated tumors
Protocol: FIG. 4B are immunohistochemical images of pre-treatment biopsies and post-Compound A treatment tumor tissues with antibodies against p-ERK, Ki67, and γH2AX showing an in vivo increase of γH2AX-positive cells after treatment with Compound A and proliferative activity at the “pushing margin.” Tumor-bearing mice were subjected to a pre-treatment biopsy and then treated with Compound A at 50 mg/kg/day. FIG. 6E are immunoblots with antibodies against actin, p-AKT, and γH2AX of tumor tissues harvested from animals 3 hours after last treatment with Compound A (30 mg/kg/day), Compound B (50 mg/kg/day), or their combination. FIG. 8A are immunohistochemical images of tumor tissues obtained from tumor-bearing […] pre-treatment (left column of images), at Day 10 of treatment (middle column of images), and post-treatment tissue at the time of progression (right column of images) following treatment with a combination of Compound A and Compound B. FIG. 8B is a graph of Ki67 (right bar graph in each treatment group) and γH2AX (left bar graph in each treatment group) levels in tumor biopsies in pre-treatment, on-treatment, and post-treatment at the time of progression groups. Ki67 and γH2AX were scored by counting and averaging the number of positive nuclei per high-power field (HPF). […] The protein concentration was determined using Bradford reagent (Biorad). […]

Compound A levels in tumor tissues [1]: consistently in the micro-molar range
Structure (SMILES): Nc1cc(C(F)(F)F)c(-c2cc(N3CCOCC3)nc(N3CCOCC3)n2)cn1 [Compound A, 5-(2,6-dimorpholinopyrimidin-4-yl)-4-(trifluoromethyl)pyridin-2-amine]
formation of Rad51 foci in response to ionizing radiation [2]: completely blocked
percentage of tumor cells that express γH2AX / γH2AX in tumor lysates [3]: substantial increase

Source: patent US20140235630A1, “COMPOSITIONS AND METHODS FOR THE TREATMENT OF PROLIFERATIVE DISEASES” (Beth Israel Deaconess Medical Center, Inc., priority 2011, published 2014)
